Experimental data as given in PMC9934367, “Functional impact of subunit composition and compensation on Drosophila melanogaster nicotinic receptors–targets of neonicotinoids” (PLOS Genetics, 2023).

System: D. melanogaster nAChRs
Test: Comparison of agonist activity between nAChRs expressed in X. laevis oocytes (one-way ANOVA, Kruskal-Wallis)
Assay type: cell-based
Procedure: We minimised the use of X. laevis according to the UK Animals (Scientific Procedures) Act, 1986. […] Oocytes were defolliculated after collagenase treatment in Ca^2+-free standard oocyte saline (Ca^2+-free SOS). cRNAs of the nAChR subunits and co-factors mixed at a concentration of 0.1 mg/mL was injected into oocytes at a volume of 50 nL. Then the oocytes were incubated in the incubation medium (SOS supplemented with sodium pyruvate (Nacalai Tesque, #13058–12), penicillin-streptomycin (MilliporeSigma, #P4333), gentamycin (Nacalai Tesque, #16672–04), and 4% horse serum (Thermo Fisher Scientific, #26050–070) for 3−4 days prior to electrophysiology.
Each defolliculated X. laevis oocyte was secured in a Perspex recording chamber and perfused with the standard oocyte saline (SOS) containing 0.5 μM atropine (SOSA) at a flow rate of 7−10 mL/min [48]. Two glass electrodes filled with 2 M KCl were impaled into each oocyte and the membrane potential was clamped at -100 mV. […] The peak amplitude of the response was measured and analysed by pCLAMP (Molecular Devices, USA).
Y=Imax/1+10^(logEC50‐X)nH
Where Y is the normalised response, X is log[ligand (M)], EC50 is the half maximal concentration (M), Imax is the maximum normalised response and nH is the Hill coefficient.
Prism software was employed for the statistical analyses. […] One-way ANOVA was used to analyse the differences of the ligand agonist activity in terms of pEC50 on the various nAChRs expressed in X. laevis as well as data obtained with D. melanogaster larvae and adults.

[1] = Dα1/Dα2/Dα3/Dβ1/Dβ2 vs. Dα1/Dα2/Dα4/Dβ1/Dβ2
[2] = Dα1/Dα2/Dα3/Dβ1/Dβ2 vs. Dα1/Dα2/Dβ1/Dβ2/Dβ3
[3] = Dα1/Dα2/Dα3/Dβ1/Dβ2 vs. Dα1/Dα3/Dα4/Dβ1/Dβ2
[4] = Dα1/Dα2/Dα3/Dβ1/Dβ2 vs. Dα1/Dα3/Dβ1/Dβ2/Dβ3
[5] = Dα1/Dα2/Dα3/Dβ1/Dβ2 vs. Dα2/Dα3/Dα4/Dβ1/Dβ2
[6] = Dα1/Dα2/Dα3/Dβ1/Dβ2 vs. Dα2/Dα3/Dβ1/Dβ2/Dβ3
[7] = Dα1/Dα2/Dα3/Dβ1 vs. Dα1/Dα2/Dα3/Dβ1/Dβ2
[8] = Dα1/Dα2/Dα3/Dβ1 vs. Dα1/Dα2/Dβ1/Dβ2
[9] = Dα1/Dα2/Dα3/Dβ1 vs. Dα1/Dα3/Dβ1/Dβ2
[10] = Dα1/Dα2/Dα3/Dβ1 vs. Dα1/Dβ1/Dβ2
[11] = Dα1/Dα2/Dα3/Dβ1 vs. Dα2/Dα3/Dβ1/Dβ2
[12] = Dα1/Dα2/Dα3/Dβ1 vs. Dα3/Dβ1/Dβ2
[13] = Dα1/Dα2/Dβ1/Dβ2 vs. Dα1/Dα2/Dα3/Dβ1/Dβ2
[14] = Dα1/Dα2/Dβ1/Dβ2 vs. Dα2/Dα3/Dβ1/Dβ2
[15] = Dα1/Dα2/Dβ1 vs. Dα1/Dα2/Dα3/Dβ1
[16] = Dα1/Dα2/Dβ1 vs. Dα1/Dα2/Dα3/Dβ1/Dβ2
[17] = Dα1/Dα2/Dβ1 vs. Dα1/Dα2/Dβ1/Dβ2
[18] = Dα1/Dα2/Dβ1 vs. Dα1/Dα3/Dβ1/Dβ2
[19] = Dα1/Dα2/Dβ1 vs. Dα2/Dα3/Dβ1/Dβ2
[20] = Dα1/Dα3/Dβ1/Dβ2 vs. Dα1/Dα2/Dα3/Dβ1/Dβ2
[21] = Dα1/Dα3/Dβ1/Dβ2 vs. Dα1/Dα2/Dβ1/Dβ2
[22] = Dα1/Dα3/Dβ1/Dβ2 vs. Dα2/Dα3/Dβ1/Dβ2
[23] = Dα1/Dα3/Dβ1 vs. Dα1/Dα2/Dα3/Dβ1
[24] = Dα1/Dα3/Dβ1 vs. Dα1/Dα2/Dα3/Dβ1/Dβ2
[25] = Dα1/Dα3/Dβ1 vs. Dα1/Dα2/Dβ1/Dβ2
[26] = Dα1/Dα3/Dβ1 vs. Dα1/Dα3/Dβ1/Dβ2
[27] = Dα1/Dα3/Dβ1 vs. Dα2/Dα3/Dβ1/Dβ2
[28] = Dα1/Dβ1/Dβ2 vs. Dα1/Dα2/Dα3/Dβ1/Dβ2
[29] = Dα1/Dβ1/Dβ2 vs. Dα1/Dα2/Dβ1/Dβ2

## CN/C(=N\[N+](=O)[O-])NCc1cnc(Cl)s1 [Clothianidin, clothianidin]
[1]
  Difference of Imax values, nAChRs compared: -0.189
  Difference of pEC50 values, nAChRs compared: -0.13
[2]
  Difference of Imax values, nAChRs compared: -0.162
  Difference of pEC50 values, nAChRs compared: 0.92
[3]
  Difference of Imax values, nAChRs compared: 0.388
  Difference of pEC50 values, nAChRs compared: -0.35
[4]
  Difference of Imax values, nAChRs compared: 0.281
  Difference of pEC50 values, nAChRs compared: -1.01
[5]
  Difference of Imax values, nAChRs compared: -0.100
  Difference of pEC50 values, nAChRs compared: -0.52
[6]
  Difference of Imax values, nAChRs compared: 0.117
  Difference of pEC50 values, nAChRs compared: -0.87
[7]
  Difference of Imax values, nAChRs compared: 0.005
  Difference of pEC50 values, nAChRs compared: -0.04
[8]
  Difference of Imax values, nAChRs compared: 0.017
  Difference of pEC50 values, nAChRs compared: 0.24
[9]
  Difference of Imax values, nAChRs compared: 0.133
  Difference of pEC50 values, nAChRs compared: -0.85
[10]
  Difference of Imax values, nAChRs compared: 0.457
  Difference of pEC50 values, nAChRs compared: -0.09
[11]
  Difference of Imax values, nAChRs compared: 0.183
  Difference of pEC50 values, nAChRs compared: -0.74
[12]
  Difference of Imax values, nAChRs compared: 0.325
  Difference of pEC50 values, nAChRs compared: -0.91
[13]
  Difference of Imax values, nAChRs compared: -0.012
  Difference of pEC50 values, nAChRs compared: -0.28
[14]
  Difference of Imax values, nAChRs compared: 0.166
  Difference of pEC50 values, nAChRs compared: -0.98
[15]
  Difference of Imax values, nAChRs compared: -0.118
  Difference of pEC50 values, nAChRs compared: -1.48
[16]
  Difference of Imax values, nAChRs compared: -0.113
  Difference of pEC50 values, nAChRs compared: -1.52
[17]
  Difference of Imax values, nAChRs compared: -0.101
  Difference of pEC50 values, nAChRs compared: -1.24
[18]
  Difference of Imax values, nAChRs compared: 0.015
  Difference of pEC50 values, nAChRs compared: -2.33
Dα1/Dα2/Dβ1 vs. Dα1/Dβ1/Dβ2
  Difference of Imax values, nAChRs compared: 0.339
  Difference of pEC50 values, nAChRs compared: -1.57
Dα1/Dα2/Dβ1 vs. Dα2/Dα3/Dβ1
  Difference of Imax values, nAChRs compared: -0.183
  Difference of pEC50 values, nAChRs compared: -1.74
[19]
  Difference of Imax values, nAChRs compared: 0.065
  Difference of pEC50 values, nAChRs compared: -2.22
Dα1/Dα2/Dβ1 vs. Dα3/Dβ1/Dβ2
  Difference of Imax values, nAChRs compared: 0.207
  Difference of pEC50 values, nAChRs compared: -2.39
[20]
  Difference of Imax values, nAChRs compared: -0.128
  Difference of pEC50 values, nAChRs compared: 0.81
[21]
  Difference of Imax values, nAChRs compared: -0.116
  Difference of pEC50 values, nAChRs compared: 1.09
[22]
  Difference of Imax values, nAChRs compared: 0.050
  Difference of pEC50 values, nAChRs compared: 0.11
[23]
  Difference of Imax values, nAChRs compared: -0.190
  Difference of pEC50 values, nAChRs compared: 0.65
[24]
  Difference of Imax values, nAChRs compared: -0.185
  Difference of pEC50 values, nAChRs compared: 0.61
Dα1/Dα3/Dβ1 vs. Dα1/Dα2/Dβ1
  Difference of Imax values, nAChRs compared: -0.072
  Difference of pEC50 values, nAChRs compared: 2.13
[25]
  Difference of Imax values, nAChRs compared: -0.173
  Difference of pEC50 values, nAChRs compared: 0.89
[26]
  Difference of Imax values, nAChRs compared: -0.057
  Difference of pEC50 values, nAChRs compared: -0.20
Dα1/Dα3/Dβ1 vs. Dα1/Dβ1/Dβ2
  Difference of Imax values, nAChRs compared: 0.267
  Difference of pEC50 values, nAChRs compared: 0.56
Dα1/Dα3/Dβ1 vs. Dα2/Dα3/Dβ1
  Difference of Imax values, nAChRs compared: -0.255
  Difference of pEC50 values, nAChRs compared: 0.39
[27]
  Difference of Imax values, nAChRs compared: -0.007
  Difference of pEC50 values, nAChRs compared: -0.09
Dα1/Dα3/Dβ1 vs. Dα3/Dβ1/Dβ2
  Difference of Imax values, nAChRs compared: 0.135
  Difference of pEC50 values, nAChRs compared: -0.26
[28]
  Difference of Imax values, nAChRs compared: -0.452
  Difference of pEC50 values, nAChRs compared: 0.05
[29]
  Difference of Imax values, nAChRs compared: -0.440
  Difference of pEC50 values, nAChRs compared: 0.33
